Assay results reported in patent publication US20120015906A1, “USES OF BORTEZOMIB IN PREDICTING SURVIVAL IN MULTIPLE MYELOMA PATIENTS” (priority 2009, published 2012).
“Also recorded” adds a separate entry of the source.

Columns and labels:
proteasome genes [1] = details: Burington et al., 2009; cited from earlier work
proteasome genes [2] = assay: Proteasome gene expression changes after short-term exposure (test-dosing) to bortezomib, dexamethasone, thalidomide, melphalan; type: in vivo, human; details: for proteasome gene expression change after short-term exposure: test-dosing in myeloma patients
From the text: In earlier studies, pharmacogenomics was used to identify genes altered by short-term exposure of therapy-naïve cases to thalidomide and dexamethasone. Little to no overlap was found in the genes altered by these agents with those altered by bortezomib.

| SMILES | hyperactivation of proteasome genes after short-term drug (proteasome genes [1]) | changes for some proteasome genes (e.g. PSMB3 and PSMD14) compared to the changes after bortezomib (proteasome genes [2]; FIG. 10, short-term exposure) | change of PSMB2 and PSMD14 compared to the changes after bortezomib (proteasome genes [2]; melphalan test-dosing, Total Therapy 4) | proteasome gene expression change after short-term exposure (proteasome genes [2]) |
| --- | --- | --- | --- | --- |
| Nc1cccc2c1CN(C1CCC(=O)NC1=O)C2=O (stereo not drawn) [lenalidomide] | not associated with hyperactivation of proteasome genes |  |  |  |
| N[C@@H](Cc1ccc(N(CCCl)CCCl)cc1)C(=O)O [melphalan] |  | reversed | inversely changed | most proteasome genes did not change |
| O=C1CCC(N2C(=O)c3ccccc3C2=O)C(=O)N1 (stereo not drawn) [thalidomide] | not associated with hyperactivation of proteasome genes |  |  | complete lack of activation; also recorded: did not change |
